“And” between values parts separate entries of the source, which are not always exact repeats. Equal values may be shown once.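 A five-concentration, 48-hour dose response in 96-well plates underlies each endpoint, interpolated linearly between surrounding concentrations. GI50: concentration for 50% inhibition of growth. TGI denotes the concentration required for complete inhibition of growth.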 Where only a bound is given, the exact number is not on record here.

Consider ten compounds from PubChem BioAssay (NCI).

Some test systems named below: SNB-19 CNS; MDA-MB-435; M14 melanoma; UACC-257 melanoma; SF-539 CNS; NCI/ADR-RES ovarian; SF-268 CNS; BT-549 breast; ACHN renal; HOP-62 NSCLC; SK-MEL-2 melanoma; OVCAR-3 ovarian; HS 578T breast.
What all share (assay): DTP human tumour cell line panel, 48 h

A word on the TGI: it is the concentration giving total growth inhibition. A higher TGI goes with less potent growth arrest. Take `CC(=O)NC(CCC(=O)C=[N+]=N)C(=O)O` (stereo unspecified): the total growth inhibition concentration (TGI) with SNB-19 CNS, in the experiment on MDA-MB-435, in the experiment on M14 melanoma, in the experiment with UACC-257 melanoma, in the experiment on SF-539 CNS and in the experiment on NCI/ADR-RES ovarian was over 100 µM each time. For the same compound, the concentration for total growth inhibition (TGI) in the experiment on SF-268 CNS, in the experiment on BT-549 breast, in the experiment with ACHN renal, in the experiment on HOP-62 NSCLC, in the experiment with SK-MEL-2 melanoma and in the experiment on OVCAR-3 ovarian was over 100 µM in each case. For the same compound, the TGI in the experiment with HS 578T breast is over 100 µM.

In the case of `CC1(C)Cc2c(C#N)c(N)c3c(c2CO1)C(=O)OC3=O`, the concentration for total growth inhibition (TGI) with SNB-19 CNS, in the experiment on M14 melanoma, in the experiment with SF-539 CNS, with SF-268 CNS, with ACHN renal and with HOP-62 NSCLC was over 100 µM each time. For the same compound, the total growth inhibition concentration (TGI) in the experiment on SK-MEL-2 melanoma and with OVCAR-3 ovarian was over 100 µM each time.

One may read the GI50 as the concentration that inhibits growth by half. Take `CC1CCC2(C(=O)O)CCC3(C)C(=CCC4C5(C)CCC(O)C(C)(C)C5CCC43C)C2C1C` (stereo unspecified): the total growth inhibition concentration (TGI) in the experiment on SNB-19 CNS was 17.9 µM; in the experiment with MDA-MB-435, 75.1 µM; in the experiment with M14 melanoma, 4.28 µM; in the experiment on UACC-257 melanoma, 13.7 µM and 32.6 µM; with SF-539 CNS, 22.5 µM and 35.6 µM; in the experiment on NCI/ADR-RES ovarian, 23.7 µM and 40.7 µM. For the same compound, the TGI was 17.7 µM and 24.6 µM in the experiment on SF-268 CNS; 40.5 µM in the experiment with BT-549 breast; 21.8 µM and 39.1 µM with HOP-62 NSCLC; 19 µM and 30.2 µM in the experiment on SK-MEL-2 melanoma; 18.4 µM and 26.8 µM in the experiment on OVCAR-3 ovarian; 25.2 µM in the experiment on HS 578T breast. For the same compound, the GI50 in the experiment on UACC-257 melanoma was 4.8 µM and 12.1 µM; in the experiment on SF-268 CNS it was 1.29 µM and 10.7 µM.

`C/C=C/C1=CC(=O)C(O)C1O` (stereo unspecified): the total growth inhibition concentration (TGI) was determined as 124 µM in the experiment on SNB-19 CNS; 97.4 µM in the experiment on UACC-257 melanoma; 55.9 µM in the experiment with SF-539 CNS; 66.1 µM with NCI/ADR-RES ovarian; 91.2 µM with SF-268 CNS; 126 µM with HOP-62 NSCLC. Also, the results for the TGI in the experiment with SK-MEL-2 melanoma and in the experiment with OVCAR-3 ovarian were 133 µM and 67.7 µM, respectively.

For the compound `C1=C(c2ccccc2)Nc2nnnn2C1c1ccccc1` (stereo unspecified), the TGI with SNB-19 CNS is over 100 µM; in the experiment on MDA-MB-435, 47 µM; in the experiment on M14 melanoma it was 79.8 µM; in the experiment on UACC-257 melanoma, over 100 µM; in the experiment on SF-539 CNS, 81 µM; in the experiment with NCI/ADR-RES ovarian, over 100 µM. Moreover, the TGI is over 100 µM with SF-268 CNS; 57.2 µM with ACHN renal; over 100 µM with HOP-62 NSCLC; over 100 µM in the experiment with SK-MEL-2 melanoma; over 100 µM in the experiment with OVCAR-3 ovarian; over 100 µM with HS 578T breast.

With `CCOC(=O)c1c(Cl)nc2ccccc2c1N=[N+]=[N-]`, the total growth inhibition concentration (TGI) is over 100 µM in the experiment on SNB-19 CNS; 47.1 µM in the experiment on MDA-MB-435; 34.1 µM with M14 melanoma; 53.4 µM in the experiment with UACC-257 melanoma; 37.7 µM with SF-539 CNS; 30.5 µM in the experiment on SF-268 CNS. In addition, the TGI in the experiment on BT-549 breast is 30.7 µM; in the experiment on ACHN renal, over 100 µM; in the experiment with HOP-62 NSCLC, over 100 µM; in the experiment on SK-MEL-2 melanoma, 71.5 µM; with OVCAR-3 ovarian, 39.7 µM; in the experiment with HS 578T breast, 77.8 µM.

For the compound `Cc1[nH]nc(N)c1C(N)=O`, the TGI in the experiment on SNB-19 CNS, in the experiment on M14 melanoma, in the experiment with UACC-257 melanoma, with SF-539 CNS, in the experiment on SF-268 CNS and in the experiment on ACHN renal was over 100 µM throughout. This compound registered a concentration for total growth inhibition (TGI) with SK-MEL-2 melanoma of over 100 µM.

In the case of `CC1CC[C@@]2(OC1)OC1CC3C4CCC5C[C@@H](OC6OC(CO)C(OC7OC(CO)C(O)C(OC8OC(CO)C(O)C(OC9OC(CO)C(O)C(O)C9O)C8O)C7OC7OC(CO)C(O)C(O)C7O)C(O)C6O)[C@H](O)C[C@]5(C)C4CC[C@]3(C)C1[C@@H]2C` (stereo partly specified), the TGI in the experiment with SNB-19 CNS, in the experiment with MDA-MB-435, in the experiment on M14 melanoma, in the experiment with UACC-257 melanoma, in the experiment with SF-539 CNS and in the experiment on NCI/ADR-RES ovarian was over 80.5 µM throughout. For the same compound, the concentration for total growth inhibition (TGI) in the experiment with SF-268 CNS, with BT-549 breast, in the experiment on ACHN renal, in the experiment on HOP-62 NSCLC, in the experiment with OVCAR-3 ovarian and in the experiment on HS 578T breast was over 80.5 µM in each case.

`CCCC(=O)NC1CCc2cc(OC)c(OC)c(OC)c2-c2ccc(OC)c(=O)cc21` (stereo unspecified): the TGI in the experiment on SNB-19 CNS was over 100 µM; in the experiment with M14 melanoma it was over 100 µM; in the experiment with SF-539 CNS, 0.00199 µM; in the experiment with NCI/ADR-RES ovarian, over 100 µM; in the experiment with SF-268 CNS it was over 100 µM; in the experiment with BT-549 breast, over 100 µM. Further, the concentration for total growth inhibition (TGI) with ACHN renal is over 100 µM; in the experiment on HOP-62 NSCLC it was over 100 µM; with SK-MEL-2 melanoma it was over 100 µM; in the experiment with OVCAR-3 ovarian it was 0.211 µM. In addition, the GI50 is over 100 µM in the experiment with M14 melanoma and 3.2 µM in the experiment on NCI/ADR-RES ovarian.

`COC(=O)c1c(O)ccc2c1c1c(n2Cc2ccc(Cl)cc2Cl)C(=O)c2ccccc2C1=O`: the TGI in the experiment with SNB-19 CNS was 30.6 µM; in the experiment on MDA-MB-435, 20.6 µM; in the experiment on M14 melanoma, 29 µM; in the experiment on UACC-257 melanoma, 30.1 µM; in the experiment with SF-539 CNS, 27.7 µM; in the experiment with NCI/ADR-RES ovarian, 24.1 µM. Further, the total growth inhibition concentration (TGI) in the experiment with SF-268 CNS was found to be 24.6 µM; in the experiment with BT-549 breast it was 26.1 µM; in the experiment with ACHN renal, 20.4 µM; with HOP-62 NSCLC, 23.5 µM; with SK-MEL-2 melanoma, 28.8 µM; in the experiment with OVCAR-3 ovarian it was 27.2 µM. In the experiment on HS 578T breast, this compound showed a TGI of 33.1 µM.
